Assay results: patent publication US4183930A, “Amino derivatives of pyrazolo [1,5-a]s-triazine, and their therapeutic applications” (Aron S.A., priority 1978, dated 1980)
Like-named read-outs stand apart in the source and are kept apart here.

What was measured:
[1] = test system: anaphylactic shock in mice; assay: Protective effect against anaphylactic shock in mice; type: in vivo, mouse; details: 100 mg/kg i.p., 30 min prior to albumin; for Number of dead animals: dead/total; for responders at 100 mg/kg: Mus musculus, ip, 0.5 h, read-out: % surviving animals
Procedure: (a) Protective effect against anaphylactic shock in mice
The protective effect against anaphylactic shock was investigated according to the technique disclosed by Duhault and co-workers (Arzneim. Forschung, 1972, II, 1947). Four weeks after sensitization to bovine albumin, intravenous injection of 0.3 mg bovine albumin in mice causes a fatal anaphylactic shock within the 30 minutes which follow said injection.
The protective effect of compounds of the formula (I), on intraperitoneal administration, at a dosage of 100 mg/kg 30 minutes prior to albumin injection is illustrated in Table III.

[2] = test system: isolated trachea of guinea-pigs; assay: Dilatation of the isolated trachea of guinea-pigs (Castillo & De Beer); design: species or system guinea-pig; details: 10 γ/ml, tensile load 500 mg; for % dilatation (tensile variation with respect to the activity of theophylline taken as 100%): relative to theophylline = 100%
Procedure: (a) Action on the isolated trachea of guinea-pigs The trachea is prepared according to the technique disclosed by Castillo & De Beer (J. Pharmacol. Exper. […] The organ is submitted to a tensile load of 500 mg.

[3] = in vivo; details: mouse
[4] = test system: passive cutaneous anaphylaxis in rats; assay: Protective effect against passive cutaneous anaphylaxis (PCA) in rats; type: in vivo; details: Rattus norvegicus, ip, 100 mg/kg i.p., 30 min prior to ovalbumin injection, read-out: % Protection (with respect to the controls)
Procedure: (b) Protective effect against passive cutaneous anaphylaxis in rats
The protective effect against passive cutaneous anaphylaxis (PCA) in rats were investigated according to the technique disclosed by Rosenthale and co-workers (J. Pharm. Exp. Therap. 1976, 197, 725-733). Antisera were prepared by sub-cutaneous injection of 1 mg/ml ovalbumin and by intraperitoneal injection of b 30×10^9 /ml Bacillus pertussis. The PCA reaction was visualized on intravenous injection of antigen (ovalbumin) and Evans Blue in rats which had been intradermally administered the antiserum (4 injections in the shaved back of each rat) 72 hours previously. The protective effect obtained on intraperitoneal administration of the compounds at a dosage of 100 mg/kg 30 minutes prior to ovalbumin injection is set forth in Table IV.
To determine the percent protection, the length of the longest diameter o
the spot and the length of the diameter perpendicular thereto are
measured. The product is expressed as mm^2.

[5] = test system: mice; assay: Acute toxicity in mice; details: dosage 1000 mg/kg
[6] = test system: mice; details: mouse, in vivo
[7] = test system: bronchospasm induced by acetylcholine, serotonine and histamine; assay: Prevention of bronchospasm in anesthetized guinea-pigs (Konzett and Rossler); type: in vivo, guinea-pig; details: Cavia porcellus, iv, spasm by acetylcholine (10-20 γ/kg i.v.), serotonine (5 γ/kg i.v.) and histamine (10 γ/kg i.v.), read-out: ED100 (dosage providing 100% inhibition of the spasm)
[8] = test system: humans; assay: First clinical tests in humans; type: in vivo, human
Excerpt: The first clinical tests provided the following data:
(2) In clinical pharmacology, functional respiratory exploration determinations provided the same bronchodilator effect found in animals.

[9] = test system: rats; assay: Chronic toxicity in rats, orally, 3 months; type: in vivo, rat; details: 3 months, 25, 100 and 300 mg/kg
[10] = test system: dogs; assay: Chronic toxicity in dogs, 1 month; type: in vivo, dog; details: 20 and 160 mg/kg
[11] = Series 3 (controls 25% surviving)
[12] = Series 4 (controls 30% surviving)
[13] = Series 2 (controls 50% surviving)

Row | Structure (SMILES) | Tensile variation [2] [mg] | % dilatation (tensile variation with respect to the activity of theophylline taken as 100%) [2] [%] | LD50 ([3]; po) [mg/kg] | inhibition in vivo at 100 mg/kg [4] [%] | ED100 [7] [mg/kg] | further results
1 | CCc1nn2c(N)nc(N)nc2c1C [Example 3, 2,4-Diamino-7-ethyl-8-methyl-pyrazolo[1,5-a]s.triazine] | -100 | 111 | 200 | 92 | – | Number of dead animals ([1]; Series 3 (controls 15/20)): 6/19; responders at 100 mg/kg [1, 11]: 68.5%
2 | CCCNc1nc(N)nc2cc(C)nn12 [Example 9] | – | – | – | 69 | – | Number of dead animals at the dosage indicated, p.o. [5]: one
3 | Cc1cc2nc(N)nc(NCC3CCCO3)n2n1 (centres unmarked) [Example 8, 2-Amino-4-tetrahydrofurfurylamino-7-methyl-pyrazolo[1,5-a]s.triazine] | -72 | 80 | – | 54 | – | Number of dead animals ([1]; Series 4 (controls 14/20)): 6/21; responders at 100 mg/kg [1, 12]: 71%; Number of dead animals at the dosage indicated, p.o. [6]: two
4 | Cc1cc2nc(N)nc(NC(C)C)n2n1 [Example 6, 2-amino-4-isopropylamino-7-methyl-pyrazolo[1,5-a]s.triazine methane sulfonate] | -200 | 220 | – | – | 5 | Number of dead animals ([1]; Series 3 (controls 15/20)): 12/20; responders at 100 mg/kg [1, 11]: 40%; Number of dead animals at the dosage indicated, p.o. [6]: one
5 | CNc1nc(N)nc2cc(C)nn12 [Example 4, 2-Amino-4-methylamino-7-methyl-pyrazolo[1,5-a]s.triazine] | -153 | 170 | – | 92 | – | Number of dead animals ([1]; Series 3 (controls 15/20)): 9/20; responders at 100 mg/kg [1, 11]: 55%; LD50 p.o. ([6]; po): 1000 mg/kg; tolerance in humans [8]: good tolerance; LD50 ([3]; iv): 300 mg/kg; alteration of the biological constants / histological injury of the various organs [9]: neither alteration of the biological constants nor histological injury of the various organs
6 | Nc1nc(N)n2nccc2n1 [Example 1, 2,4-Diamino-pyrazolo[1,5-a]s.triazine] | -60 | 67 | 1250 | 42 | 20 to 25 | responders at 100 mg/kg ([1]; Series 1 (controls 20% surviving)): 50%; Number of dead animals ([1]; mice sensitized to bovine albumin, Series 1 (controls 16/20)): 10/20; Number of dead animals at the dosage indicated, i.v. [6]: no; tolerance in humans [8]: good tolerance; alteration of the biological constants / histological injury of the various organs [9]: neither alteration of the biological constants nor histological injury of the various organs
7 | Cn1c(=O)c2[nH]cnc2n(C)c1=O [Theophylline, reference compound] | -90 | – | – | 72 | 20 to 25 | Number of dead animals ([1]; Series 2 (controls 10/20)): 4/20; responders at 100 mg/kg [1, 13]: 80%
8 | C=CCNc1nc(N)nc2cc(C)nn12 [Example 7, 2-Amino-4-allylamino-7-methyl-pyrazolo[1,5-a]s.triazine] | -180 | 200 | 1200 | 71 | 5 | Number of dead animals ([1]; Series 4 (controls 14/20)): 2/20; responders at 100 mg/kg [1, 12]: 90%; Number of dead animals at the dosage indicated, i.v. [6]: no
9 | CNc1nc(NC)n2nc(C)cc2n1 [Example 5, 2,4-Bis-(methylamino)-7-methyl-pyrazolo[1,5-a]s.triazine] | -207 | 230 | 300 | 83 | 10 | –
10 | C=CCNc1nc(N)nc2ccnn12 [Example 11] | – | – | – | – | – | Number of dead animals at the dosage indicated, p.o. [5]: one
11 | Cc1cc2nc(N)nc(N)n2n1 [Example 2, 2,4-Diamino-7-methyl-pyrazolo[1,5-a]s.triazine] | -100 | 111 | 900 | 56 | 15 to 20 | Number of dead animals ([1]; Series 2 (controls 10/20)): 2/21; responders at 100 mg/kg [1, 13]: 90.5%; tolerance in humans [8]: good tolerance; alteration of the biological constants / histological injury of the various organs [10]: neither alteration of the biological constants nor histological injury of the various organs; LD50 ([3]; iv): 380 mg/kg; alteration of the biological constants / histological injury of the various organs [9]: neither alteration of the biological constants nor histological injury of the various organs
12 | Cc1cc2nc(N)nc(NC(C)(C)C)n2n1 [Example 10] | – | – | – | 50 | – | Number of dead animals at the dosage indicated, p.o. [5]: one
